Assay results as given in US20230219904A1 (SYNGENTA CROP PROTECTION AG, priority 2020, published 2023).

Experiments:
Assay type in all cases: in vivo
[1] = test system: Ipomoea hederacea (IPOHE); assay: Pre-emergence herbicidal glasshouse test (Table B1); settings: evaluated after 13 days
Protocol: (§1) Seeds of a variety of test species are sown in standard soil in pots (Lolium perenne (LOLPE), Amaranthus retoflexus (AMARE), Abutilon theophrasti (ABUTH), Setaria faberi (SETFA), Echinochloa crus-galh (ECHCG), Ipomoea hederacea (IPOHE)). After cultivation for one day (pre-emergence) or after 8 days cultivation (post-emergence) under controlled conditions in a glasshouse (at 24/16° C., day/night; 14 hours light; 65% humidity), the plants are sprayed with an aqueous spray solution derived from the formulation of the technical active ingredient in acetone/water (50:50) solution containing 0.5% Tween 20 (polyoxyethelyene sorbitan monolaurate, CAS RN 9005-64-5). Compounds are applied at 500 g/h unless otherwise indicated. The test plants are then grown in a glasshouse under controlled conditions in a glasshouse (at 24/16° C., day/night; 14 hours light; 65% humidity) and watered twice daily. After 13 days for pre and post-emergence, the test is evaluated for the percentage damage caused to the plant. The biological activities are shown in the following table on a five-point scale (5=80-100%; 4=60-79%; 3=40-59%; 2=20-39%; 1=0-19%).

Setaria faberi (SETFA) [2] = assay: as above; settings: evaluated after 13 days
Protocol: as §1

[3] = test system: Amaranthus retoflexus (AMARE); assay: as above; settings: evaluated after 13 days
Protocol: as §1

[4] = test system: Echinochloa crus-galh (ECHCG); assay: as above; settings: evaluated after 13 days
Protocol: as §1

[5] = test system: Abutilon theophrasti (ABUTH); assay: as above; settings: evaluated after 13 days
Protocol: as §1

[6] = test system: Ipomoea hederacea (IPOHE); assay: Post-emergence herbicidal glasshouse test (Table B1); settings: evaluated after 13 days
Protocol: as §1

Setaria faberi (SETFA) [7] = assay: as above; settings: evaluated after 13 days
Protocol: as §1

[8] = test system: Amaranthus retoflexus (AMARE); assay: as above; settings: evaluated after 13 days
Protocol: as §1

[9] = test system: Echinochloa crus-galh (ECHCG); assay: as above; settings: applied at 125 g/ha, evaluated after 13 days
Protocol: as §1

| SMILES | PRE Application IPOHE, percentage damage on five-point scale ([1]; applied at 125 g/ha) | PRE Application SETFA, percentage damage on five-point scale (Setaria faberi (SETFA) [2]; applied at 125 g/ha) | PRE Application AMARE, percentage damage on five-point scale ([3]; applied at 125 g/ha) | PRE Application ECHCG, percentage damage on five-point scale ([4]; applied at 125 g/ha) | PRE Application ABUTH, percentage damage on five-point scale ([5]; applied at 125 g/ha) | POST Application IPOHE, percentage damage on five-point scale ([6]; applied at 125 g/ha) | POST Application SETFA, percentage damage on five-point scale (Setaria faberi (SETFA) [7]; applied at 125 g/ha) | POST Application AMARE, percentage damage on five-point scale ([8]; applied at 125 g/ha) | POST Application ECHCG, percentage damage on five-point scale [9] | PRE Application IPOHE, percentage damage on five-point scale ([1]; applied) | PRE Application SETFA, percentage damage on five-point scale (Setaria faberi (SETFA) [2]; applied at 500 g/h) | PRE Application AMARE, percentage damage on five-point scale ([3]; applied at 500 g/h) | PRE Application ECHCG, percentage damage on five-point scale ([4]; applied at 500 g/h) | PRE Application ABUTH, percentage damage on five-point scale ([5]; applied at 500 g/h) | POST Application IPOHE, percentage damage on five-point scale ([6]; applied at 500 g/h) | POST Application SETFA, percentage damage on five-point scale (Setaria faberi (SETFA) [7]; applied at 500 g/h) | POST Application AMARE, percentage damage on five-point scale ([8]; applied at 500 g/h) |
| --- | --- | --- | --- | --- | --- | --- | --- | --- | --- | --- | --- | --- | --- | --- | --- | --- | --- |
| Cc1nc(C(=O)Nc2c(OC(F)F)ccc(C(=O)Nc3nnnn3C)c2Cl)cs1 [Compound 1.038] | 5 (5=80-100%) | 4 (4=60-79%) | 5 (5=80-100%) | 5 (5=80-100%) | 5 (5=80-100%) | 4 (4=60-79%) | 4 (4=60-79%) | 4 (4=60-79%) |  |  |  |  |  |  |  |  |  |
| Cn1nnnc1NC(=O)c1ccc(OC(F)F)c(NC(=O)c2cc(Cl)sc2Cl)c1Cl [Compound 1.041] | 2 (2=20-39%) | 2 (2=20-39%) | 2 (2=20-39%) | 3 (3=40-59%) | 5 (5=80-100%) | 3 (3=40-59%) | 3 (3=40-59%) | 3 (3=40-59%) |  |  |  |  |  |  |  |  |  |
| Cc1nc(C)c(C(=O)Nc2c(OC(F)F)ccc(C(=O)Nc3nnnn3C)c2Cl)s1 [Compound 1.042] | 5 (5=80-100%) | 5 (5=80-100%) | 5 (5=80-100%) | 5 (5=80-100%) | 4 (4=60-79%) | 5 (5=80-100%) | 5 (5=80-100%) | 5 (5=80-100%) | 5 (5=80-100%) |  |  |  |  |  |  |  |  |
| COc1ccccc1C(=O)Nc1c(OC(F)(F)F)ccc(C(=O)Nc2nnnn2C)c1Cl [Compound 1.056] |  | 3 (3=40-59%) | 3 (3=40-59%) | 1 (1=0-19%) | 5 (5=80-100%) | 4 (4=60-79%) | 4 (4=60-79%) | 4 (4=60-79%) | 4 (4=60-79%) |  |  |  |  |  |  |  |  |
| Cn1nnnc1NC(=O)c1ccc(OC(F)(F)F)c(NC(=O)C(C)(F)F)c1Cl [Compound 1.061] | 3 (3=40-59%) | 3 (3=40-59%) | 5 (5=80-100%) | 3 (3=40-59%) |  | 4 (4=60-79%) | 5 (5=80-100%) | 5 (5=80-100%) | 4 (4=60-79%) |  |  |  |  |  |  |  |  |
| CCCOCC(=O)Nc1c(OC(F)(F)F)ccc(C(=O)Nc2nnnn2C)c1Cl [Compound 1.062] | 4 (4=60-79%) | 3 (3=40-59%) | 5 (5=80-100%) | 2 (2=20-39%) |  | 4 (4=60-79%) | 5 (5=80-100%) | 5 (5=80-100%) | 4 (4=60-79%) |  |  |  |  |  |  |  |  |
| CC(C)OCC(=O)Nc1c(OC(F)(F)F)ccc(C(=O)Nc2nnnn2C)c1Cl [Compound 1.064] | 4 (4=60-79%) | 4 (4=60-79%) | 5 (5=80-100%) | 3 (3=40-59%) | 5 (5=80-100%) | 4 (4=60-79%) | 4 (4=60-79%) | 4 (4=60-79%) |  |  |  |  |  |  |  |  |  |
| CCOCC(=O)Nc1c(OC(F)(F)F)ccc(C(=O)Nc2nnnn2C)c1Cl [Compound 1.066] | 5 (5=80-100%) | 4 (4=60-79%) | 5 (5=80-100%) | 5 (5=80-100%) | 5 (5=80-100%) | 4 (4=60-79%) | 4 (4=60-79%) | 4 (4=60-79%) |  |  |  |  |  |  |  |  |  |
| CCn1nnnc1NC(=O)c1ccc(OC(F)(F)F)c(NC(=O)CC(F)(F)F)c1Cl [Compound 1.068] | 3 (3=40-59%) | 5 (5=80-100%) | 5 (5=80-100%) | 5 (5=80-100%) | 5 (5=80-100%) | 4 (4=60-79%) | 5 (5=80-100%) | 4 (4=60-79%) |  |  |  |  |  |  |  |  |  |
| CCn1nnnc1NC(=O)c1ccc(OC(F)F)c(NC(=O)c2cc(OC)ccn2)c1Cl [Compound 1.080] | 2 (2=20-39%) | 1 (1=0-19%) | 4 (4=60-79%) | 1 (1=0-19%) | 1 (1=0-19%) | 4 (4=60-79%) | 4 (4=60-79%) | 4 (4=60-79%) |  |  |  |  |  |  |  |  |  |
| Cn1nnnc1NC(=O)c1ccc(OC(F)F)c(NC(=O)c2ncccc2Cl)c1Cl [Compound 1.092] | 3 (3=40-59%) | 5 (5=80-100%) | 5 (5=80-100%) |  | 5 (5=80-100%) | 4 (4=60-79%) | 4 (4=60-79%) | 3 (3=40-59%) |  |  |  |  |  |  |  |  |  |
| CCC(=O)Nc1c(OC(F)(F)C(F)F)ccc(C(=O)Nc2nnnn2C)c1Cl [Compound 1.109] |  |  |  |  |  |  |  |  |  | 5 (5=80-100%) | 4 (4=60-79%) | 5 (5=80-100%) | 4 (4=60-79%) | 5 (5=80-100%) | 5 (5=80-100%) | 5 (5=80-100%) | 5 (5=80-100%) |
